Measurements reported in US20170029841A1, “METHODS AND COMPOSITIONS FOR SELECTIVE REGULATION OF PROTEIN EXPRESSION” (priority 2015, published 2017).

Test system: maize tissue pools (tassel, ear, leaf, root, stem)
Test: siRNA profiling microarray assay of mts-siRNA sequences across maize tissues
Details: for 01DKD2 V8-V9 Tassel relative signal value: germplasm 01DKD2, V8-V9 tassel; for 01DKD2 V10-V12 Tassel relative signal value: germplasm 01DKD2, V10-V12 tassel; for 01DKD2 Other Tissue relative signal value: germplasm 01DKD2, combined signals from other tissue; for LH244 V8-V9 Tassel relative signal value: germplasm LH244, V8-V9 tassel; for LH244 V10-V12 Tassel relative signal value: germplasm LH244, V10-V12 tassel; for LH244 Other Tissue relative signal value: germplasm LH244, combined signals from other tissue
Method: A siRNA profiling microarray assay was performed using μParaflo® Microfluidics chips provided by LC Sciences LLC (Houston, Tex., USA) with 1,200 sequences selected from the thousands of mts-siRNA sequences identified from the differential bioinformatic analysis. The microarray chips contained triplicate probes of the complementary sequence for each of the 1,200 mts-siRNA sequences. Total RNA was purified from 26 maize tissue pools (duplicate or triplicate tissue pools) from either LH244 (ATCC deposit number PTA-1173) or 01DKD2 (I294213) (ATCC deposit number PTA-7859) inbred plants. Each of the 26 RNA samples were hybridized with the microarray chips that contain probes for the 1,200 mts-siRNA. Hybridization images were collected using a GenePix® 4000B laser scanner (Molecular Devices, Sunnyvale, Calif.) and digitized using Array-Pro® Analyzer image analysis software (Media Cybernetics, Rockville, Md.). Relative signal values were derived by background subtraction and normalization. Differentially expressed signals were determined by t-test with p<0.05. From the microarray analysis, about 500 mts-siRNA from the 1,200 were identified as being highly tassel-specific.
Selected mts-siRNA sequences aligning to one of the six cDNA sequences were used for further microarray analysis to determine differential expression across maize tissues. Microarray analysis for mts-siRNA sequences of normalized signal values for V8-V9 tassel, V10-V12 tassel, or combined signals from the other tissue for maize germplasm LH244 and 01DKD2 is presented in Tables 3-10. […] Signal value results are measured as relative signal values and standard error (p<0.05) is represented by (STDR). […] The mts-siRNA sequence corresponds to the sense or antisense strand of the corresponding mts-siRNA target sequence in the cDNA sequence. The mts-siRNA sequence may have a single nucleotide, a two nucleotide, or a three nucleotide mismatch with the aligned portion of the cDNA sequence, and the mts-siRNA sequence may align to the sense strand or antisense strand of the cDNA sequence. The mts-siRNA sequences provided here are found across different maize germplasms.

Substance	01DKD2 V8-V9 Tassel relative signal value	01DKD2 V10-V12 Tassel relative signal value	01DKD2 Other Tissue relative signal value	LH244 V8-V9 Tassel relative signal value	LH244 V10-V12 Tassel relative signal value	LH244 Other Tissue relative signal value
SEQ ID NO: 37: mts-siRNA sequence aligning to cDNA SEQ ID NO: 18 (CAGAGGATGGCGATATGCACGTTG; expressed or natural sequence)	9.5	1224.5	3.3	554	553	1.5
SEQ ID NO: 63: mts-siRNA sequence aligning to cDNA SEQ ID NO: 21 (TAGATCACTCGGGTCGCCACA; expressed or natural sequence)	14.5	18	1.5	34.5	11.7	3.2
SEQ ID NO: 71: mts-siRNA sequence aligning to cDNA SEQ ID NO: 22 (AGCTATCGATTCCCTAAGTGCCA; expressed or natural sequence)	46	1943.5	2.3	1125.5	2380	1.6
SEQ ID NO: 66: mts-siRNA sequence aligning to cDNA SEQ ID NO: 21 (TGGTCATACACTAGATAGGGC; expressed or natural sequence)	61	55.5	2.8	199.5	48	1.9
SEQ ID NO: 31: mts-siRNA sequence aligning to cDNA SEQ ID NO: 17 (ACACGCATGTCACATCGCCGTC; expressed or natural sequence)	0	26.5	2.8	8	49	1.2
SEQ ID NO: 50: mts-siRNA sequence aligning to cDNA SEQ ID NO: 19 (CTGATATCTATGCTAATTCAGG; expressed or natural sequence)	5.5	326	1.8	296	722	0
SEQ ID NO: 68: mts-siRNA sequence aligning to cDNA SEQ ID NO: 21 (GAACAGTGATTTTATGAGCAA; expressed or natural sequence)	98	96	2.5	265	85.3	5
SEQ ID NO: 69: mts-siRNA sequence aligning to cDNA SEQ ID NO: 21 (GCTCATAAAATCACTGTTCAT; expressed or natural sequence)	309.5	282.5	9.8	516	185	11.2
SEQ ID NO: 72: mts-siRNA sequence aligning to cDNA SEQ ID NO: 22 (GGCCTCCCTTCCCTATGGTAGCC; expressed or natural sequence)	332.5	530	233.3	323.5	325.7	1324.8
SEQ ID NO: 41: mts-siRNA sequence aligning to cDNA SEQ ID NO: 18 (ACCCTTGCGCCTTAACTATCGTGC; expressed or natural sequence)	5	752	3	185.5	702.7	0.9
SEQ ID NO: 40: mts-siRNA sequence aligning to cDNA SEQ ID NO: 18 (CCTTGCGCCTTAACTATCGTGC; expressed or natural sequence)	7.5	452	2.8	119	448.7	1.5
SEQ ID NO: 61: mts-siRNA sequence aligning to cDNA SEQ ID NO: 21 (CTGTGATGTAGAAGCCCAGAC; expressed or natural sequence)	461	454	8	850.5	334.7	9.4
SEQ ID NO: 25: mts-siRNA sequence aligning to cDNA SEQ ID NO: 17 (ACGACCGTGCATGGTGAT; expressed or natural sequence)	56	440	2.3	289	824.3	2.6
SEQ ID NO: 52: mts-siRNA sequence aligning to cDNA SEQ ID NO: 19 (CTGATATCTATGCTAATTCAGG; expressed or natural sequence)	234	3286.5	3.5	4080	3629.7	5.5
SEQ ID NO: 75: mts-siRNA sequence aligning to cDNA SEQ ID NO: 22 (ACAGTGACTCACCAGTGCATGCAC; expressed or natural sequence)	3	257	5	53	237.3	3.3
SEQ ID NO: 42: mts-siRNA sequence aligning to cDNA SEQ ID NO: 18 (ACTACAGTGAGAGTCTAGGAAAGC; expressed or natural sequence)	6	588	5.3	143.5	564.3	2.6
SEQ ID NO: 84: mts-siRNA sequence aligning to cDNA SEQ ID NO: 22 (AAGAAGGTGCTTGTTGTC; expressed or natural sequence)	0	20	1	13	35.7	4.4
SEQ ID NO: 67: mts-siRNA sequence aligning to cDNA SEQ ID NO: 21 (CCTATCTAGTGTATGACCAAT; expressed or natural sequence)	123.5	107	4.3	216	62	3.3
SEQ ID NO: 30: mts-siRNA sequence aligning to cDNA SEQ ID NO: 17 (CACCATGCACGGTCGTCGT; expressed or natural sequence)	32	282	6.5	173.5	495.7	4.2
SEQ ID NO: 46: mts-siRNA sequence aligning to cDNA SEQ ID NO: 19 (CAGCTAATACGACGACCATTTAGG; expressed or natural sequence)	252	6778	6.8	4502.5	8663.3	8.4
